{
  "source": "paper PMC8718758",
  "about": "“Using Unnatural Protein Fusions to Engineer a Coenzyme Self-Sufficiency System for D-Phenyllactic Acid Biosynthesis in Escherichia coli” (Frontiers in Bioengineering and Biotechnology, 2021)",
  "target": "T1, LfD-LDH (Limosilactobacillus fermentum, UniProt A0ABF7R291)",
  "T1 construct": "gene LAF_0632; gene cloned BamHI/XhoI in pET28a, expressed in E. coli BL21(DE3) (strain CP101); gene primers only in supplement",
  "T1 sequence (A0ABF7R291 1-332)": "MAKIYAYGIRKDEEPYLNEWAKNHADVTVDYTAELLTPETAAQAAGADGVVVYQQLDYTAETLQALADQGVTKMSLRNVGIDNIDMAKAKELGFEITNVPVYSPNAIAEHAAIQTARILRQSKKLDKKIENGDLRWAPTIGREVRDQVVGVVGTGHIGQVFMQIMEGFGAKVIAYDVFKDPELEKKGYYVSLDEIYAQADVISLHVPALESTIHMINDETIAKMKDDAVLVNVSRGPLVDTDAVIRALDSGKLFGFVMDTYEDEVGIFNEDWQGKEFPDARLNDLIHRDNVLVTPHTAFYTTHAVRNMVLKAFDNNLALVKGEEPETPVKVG",
  "assay": "enzymatic conversion of phenylpyruvate to D-phenyllactic acid",
  "type": "biochemical",
  "settings": "co-substrate phenylpyruvate, pH 7, 35 °C; paper says only D-LDH here, LfD-LDH inferred; enzyme purity not described",
  "data": [
    {"smiles": "NC(=O)C1=CN([C@@H]2O[C@H](COP(=O)(O)OP(=O)(O)OC[C@H]3O[C@@H](n4cnc5c(N)ncnc54)[C@H](O)[C@@H]3O)[C@@H](O)[C@H]2O)C=CC1", "note": "[NADH]", "values": [
      {"measurement": "enzymatic conversion of phenylpyruvate to D-phenyllactic acid", "result": "NADH-dependent D-LDH must rely on NADH to catalyze the conversion of PPA to D-PLA"}
    ]}
  ]
}
